In US20230274811A1, “METHODS OF MAKING PROSTATE CANCER TREATMENT DECISIONS” (Progenics Pharmaceuticals, Inc., priority 2020, published 2023):
Entries after “also recorded” stand apart in the source; their conditions may differ. Read-outs that look alike come from different tables or passages of the source.

How the values were obtained:
[1] = tested on: PSMA-positive PC3 PIP tumor; assay: Uptake in mouse xenografts; assay type: in vivo; details: PSMA-positive PC3 PIP vs PSMA-negative PC3 flu tumors
high-risk PCa = assay: OSPREY Cohort A sub-analysis: TNM staging by 18F-DCFPyL PET/CT at initial staging; assay type: in vivo; details: 252 men
Text: Three central, blinded, and independent readers evaluated the ^18F-DCFPyL scans.

[2] = OSPREY safety (adverse events); assay type: in vivo, men
Method: The coprimary endpoints of sensitivity and specificity of ^18F-DCFPyL PET/CT for detecting pelvic lymph node metastases were evaluated in Cohort A. Secondary endpoints included safety in both cohorts, positive predictive value (PPV) and negative predictive value (NPV) in Cohort A, and sensitivity and PPV in Cohort B. Three central, blinded, and independent readers evaluated the ^18F-DCFPyL scans. Histopathology served as the reference standard to which imaging findings were compared. FIG. 1 provides information regarding the study design and cohorts.
Co-primary endpoints of specificity and sensitivity of ^18F-DCFPyL PET/CT for detecting prostate cancer metastases in pelvic lymph nodes were evaluated in Cohort A. Key secondary endpoints included incidence of adverse events, positive predictive value (PPV) and negative predictive value (NPV) of ^18F-DCFPyL PET/CT imaging to detect pelvic lymph node metastases in Cohort A, sensitivity and PPV of ^18F-DCFPyL PET/CT imaging to detect prostate cancer within sites of metastasis or recurrence in Cohort B. Three central, blinded, and independent readers evaluated the ^18F-DCFPyL scans. Imaging findings were compared to histopathology as the truth standard.
Pts underwent image-guided biopsy.

[3] = CONDOR safety (adverse events); assay type: in vivo, men
Text: Pre- and post-treatment assessments also included vital signs and concomitant medications/procedures.

[4] = tested on: primary tumor in the gland; assay: OSPREY Cohort A: 18F-DCFPyL PET/CT detection of primary tumor in the prostate gland vs surgical pathology; assay type: in vivo, men
Text: Sensitivity, specificity, PPV and NPV of ^18F-DCFPyL PET/CT for detecting primary tumor in the gland and pelvic lymph node metastases were compared to conventional imaging (CI), either CT or MRI. Three central, blinded, and independent readers evaluated the ^18F-DCFPyL scans and one blinded central reader interpreted the CI. Imaging results were compared to surgical pathology as the truth standard.

[5] = tested on: PCa recurrence or metastases; assay: OSPREY Cohort B sub-analysis: staging changes vs conventional imaging; assay type: in vivo, men
Method: Methods ^18F-DCFPyL-PET/CT was evaluated in 117 men with radiologic evidence of local recurrence or metastatic disease on baseline anatomical imaging (CT, MRI) or whole-body bone scintigraphy and in whom at least one lesion was deemed amenable to biopsy. […] Based on TNM staging: prostatic (T), pelvic LN (N), extra-pelvic LN (M1a), bone (M1b) and other visceral organs/soft tissue (M1c), ^18F-DCFPyL-PET/CT detection rates including lesion counts were systematically analyzed. Three central, blinded, and independent readers evaluated the ^18F-DCFPyL scans.

O=C(O)CC[C@H](NC(=O)N[C@@H](CCCCNC(=O)c1ccc([18F])nc1)C(=O)O)C(=O)O [18F-DCFPyL, 2-(3-{1-carboxy-5-[(6-[^18F]fluoro-pyridine-3-carbonyl)-amino]-pentyl}ureido)-pentanedioic acid]
uptake in mouse xenografts [1]: taken up only in PSMA-positive PC3 PIP tumor and not in PSMA-negative PC3 flu tumors
patients upstaged to N1 or M1 disease (high-risk PCa): 22%
pts staged M1a (high-risk PCa): 0.4%
pts staged M1b (high-risk PCa): 9.1%
pts staged M1c (high-risk PCa): 1.2%
pts staged with M1 disease (high-risk PCa): 10.7%
pts staged with N1 disease (high-risk PCa; no known nodal/metastatic disease on standard imaging): 14.7%
drug-related serious adverse events ([2]; 385 men, both cohorts): No drug-related serious adverse events were observed
dysgeusia, drug-related AE incidence ([2]; 385 men, both cohorts): 2.1%
headache, drug-related AE incidence ([2]; 385 men, both cohorts): 2.1%
men with ≥1 drug-related adverse event ([2]; 385 men, both cohorts): 7.0%
severity of drug-related AEs (dysgeusia and generalized rash) ([2]; Cohort B): mild (Grade 1)
pts with ≥1 drug-related AE ([2]; Cohort B, 117 men): 1.7%
tolerability ([2]; OSPREY): generally well tolerated
patients experiencing AEs ([3]; 14 patients, 21 AEs): 6.7%
drug-related serious adverse event ([3]; 208 men): A single serious adverse event (AE) was reported as related to study drug (hypersensitivity); also recorded: hypersensitivity was the single drug-related Grade 3 AE
fatigue, AE incidence ([3]; 208 men): 1.0%
headache, AE incidence ([3]; 208 men): 1.9%
hypertension, AE incidence ([3]; 208 men): 1.0%
drug-related serious adverse event ([3]; 208 men, listed as PyL): one drug-related SAE (hypersensitivity)
tolerability ([3]; CONDOR): well tolerated
Grade 4 AEs, deaths, AEs leading to discontinuation ([3]; in vivo): There were no Grade 4 AEs, nor were there deaths or AEs that led to discontinuation of the study
changes in vital signs pre- to post-dosing ([3]; in vivo): No clinically relevant changes in vital signs were observed
patients with Grade 3, serious AEs (hypersensitivity, headache, paresthesia) ([3]; one patient): 0.5%
AEs in case studies 1-3 ([3]; single patients): No AEs were reported
PPV, median of 3 readers [4]: 100% (0.98, 1.0)
Sensitivity, median of 3 readers [4]: 98.0% (0.96, 1.0)
Sensitivity, median of 3 readers ([4]; listed as PyL): 98%
up-staged pts with extra-pelvic biopsy confirmed M1 by pathology ([5]; 10/11): 91%
baseline M1 pts upstaged to a higher M1 sub-stage ([5]; 10/64): 16%
baseline M1 pts down-staged to M0 ([5]; 18/82): 22%
pts up-staged from M0 to M1 ([5]; 19/33 M0 at baseline by conventional imaging): 58%
